Measured values taken from US5939428A, “Alkyl N-[3-(acridin-9-yl)amino-5-hydroxymethyl] phenylcarbamates” (National Health Research Institutes, priority 1998, dated 1999).

Assays:
[1] = mouse, in vivo; cited from earlier work
HL-60 cells = assay: in vitro cytotoxicity against growth of human leukemic HL-60 cells; assay type: cell-based; settings: read-out: IC50 for cell growth inhibition, HL-60
Experimental: (§1) The in vitro cytotoxicity of the N-[3-(acridin-9-yl)amino-5-hydroxymethyl]phenylcarbamate derivatives of the invention against growth of human leukemic HL-60 cells and 833K tumor cells, and the chemotherapeutic effects of ethyl N-[3-(acridin-9-yl)amino-5-hydroxymethyl]phenylcarbamate on Sarcoma 180 and Lewis lung carcinoma tumor bearing B6 D2 F1 mice were evaluated. The compound 3-(acridin-9-yl)amino-5-hydroxymethylaniline (AHMA) was also evaluated for comparison.
(§2) The in vitro cytotoxicity against growth of human
(§3) leukemic HL-60 cells and 833K tumor cells.

[2] = tested on: murine leukemia and solid tumors (a mammary adenocarcinoma, B-16 melanoma and Lewis lung carcinoma); settings: cited from earlier work
[3] = longer than m-AMSA; cited from earlier work
[4] = tested on: leukemia and several solid tumors; settings: against growth of leukemia and several solid tumors, in vitro and in vivo; cited from earlier work
Lewis lung carcinoma = assay: chemotherapeutic effect on Lewis lung carcinoma tumor bearing B6 D2 F1 mice; assay type: in vivo; settings: for Average Weight Change, Day 7 / Average Weight Change, Day 10: mouse, in vivo, ip
Experimental: as §1
The chemotherapeutic effects on Sarcoma 180 and
Lewis lung carcinoma tumor bearing B6 D2 F1 mice.^a […]
carcinoma (4 × […] cells) inoculated s.c. on day (-2).
Treatment started on day 1, i.p., QD × 5. Control had 4 mice and
each dose had 3 mice. Tumor sizes were evaluated on day 7 and day 10.

833K tumor cells = assay: in vitro cytotoxicity against growth of 833K tumor cells; assay type: cell-based; settings: Homo sapiens, read-out: IC50 for cell growth inhibition, 833K
Experimental: as §1, §2, §3

Sarcoma 180 = assay: chemotherapeutic effect on Sarcoma 180 tumor bearing B6 D2 F1 mice; assay type: in vivo; settings: for Average Tumor Volume (T/C), Day 7 / Average Weight Change, Day 7: QD × 5, day 7
Text: Sarcoma 180 (3 × 10^6 cells) innoculated subcutaneously
(s.c.) on day 0. Treatment started on day 1, peritoneal injection (i.p.),

[5] = mouse and rat; GSH conjugates; cited from earlier work
[6] = 37° C.; cited from earlier work
[7] = Lewis lung carcinoma, 3.0 mg/kg i.p., QD × 5
[8] = Lewis lung carcinoma, 6.0 mg/kg i.p., QD × 5

CNC(=O)c1cccc2c(Nc3ccc(NS(C)(=O)=O)cc3OC)c3cccc(C)c3nc12 [CI-921]
metabolites detected in addition to the 5'- and 6'-GSH conjugates [1]: two other metabolites, namely C9-GSH and the 4-hydroxymethyl derivatives of CI-921, were detected

Nc1cc(CO)cc(Nc2c3ccccc3nc3ccccc23)c1 [compound 1, 3-(acridin-9-yl)amino-5-hydroxymethylaniline]
IC50 (HL-60 cells): 25 nM
toxicity toward the host compared with m-AMSA and VP-16 ([2]; mouse, in vivo): less toxic toward the host
antitumor efficacy compared with m-AMSA and VP-16 ([2]; murine leukemia and solid tumors): greater efficacy against murine leukemia and solid tumors (a mammary adenocarcinoma, B-16 melanoma and Lewis lung carcinoma) than m-AMSA and VP-16
plasma half-life [3]: 1.5 h
antitumor activity [4]: potent antitumor activity against growth of leukemia and several solid tumors both in vitro and in vivo with long half-life

CCOC(=O)Nc1cc(CO)cc(Nc2c3ccccc3nc3ccccc23)c1 [compound 2, ethyl N-[3-(acridin-9-yl)amino-5-hydroxymethyl]phenylcarbamate]
IC50 (HL-60 cells): 16 nM
Average Tumor Volume (T/C), Day 7 (Lewis lung carcinoma; [7]): 0.8
Average Tumor Volume (T/C), Day 10 (Lewis lung carcinoma; [7]): 0.63
Average Tumor Volume (T/C), Day 7 (Lewis lung carcinoma; [8]): 0.44
Average Tumor Volume (T/C), Day 10 (Lewis lung carcinoma; [8]): 0.37
Mortality (footnote c) (Lewis lung carcinoma; Lewis lung carcinoma, 8.0 mg/kg i.p., QD × 5, 3 mice): One mouse died on day 8 and two mice died on day 9
Average Tumor Volume (T/C), Day 7 (Lewis lung carcinoma; Lewis lung carcinoma, 8.0 mg/kg i.p., QD × 5): 0.21
Average Weight Change, Day 7 (Lewis lung carcinoma; 3 mg/kg): -2.3 gm
Average Weight Change, Day 10 (Lewis lung carcinoma; 3 mg/kg): -1.3 gm
Average Weight Change, Day 7 (Lewis lung carcinoma; 6 mg/kg): -3 gm
Average Weight Change, Day 10 (Lewis lung carcinoma; 6 mg/kg): -2.6 gm
Average Weight Change, Day 7 (Lewis lung carcinoma; 8 mg/kg): -3.6 gm
IC50 (833K tumor cells): 20 nM
Average Tumor Volume (T/C), Day 7 (Sarcoma 180; 3.0 mg/kg i.p.): 1.24
Average Weight Change, Day 7 (Sarcoma 180; 3.0 mg/kg i.p.): -2.0 gm
Average Tumor Volume (T/C), Day 10 (Sarcoma 180; 3.0 mg/kg i.p., QD × 5, day 10): 1.21
Average Weight Change, Day 10 (Sarcoma 180; 3.0 mg/kg i.p., QD × 5, day 10): -0.7 gm
Average Tumor Volume (T/C), Day 7 (Sarcoma 180; 5.0 mg/kg i.p.): 0.06
Average Weight Change, Day 7 (Sarcoma 180; 5.0 mg/kg i.p.): -2.6 gm
Average Tumor Volume (T/C), Day 10 (Sarcoma 180; 5.0 mg/kg i.p., QD × 5, day 10): 0.63
Average Weight Change, Day 10 (Sarcoma 180; 5.0 mg/kg i.p., QD × 5, day 10): +1.0 gm
Average Tumor Volume (T/C), Day 7 (Sarcoma 180; 7.0 mg/kg i.p.): 0.22
Average Weight Change, Day 7 (Sarcoma 180; 7.0 mg/kg i.p.): -3.4 gm
Average Tumor Volume (T/C), Day 10 (Sarcoma 180; 7.0 mg/kg i.p., QD × 5, day 10): < 0.01
Average Weight Change, Day 10 (Sarcoma 180; 7.0 mg/kg i.p., QD × 5, day 10): -0.1 gm
Tumor detectability (footnote b) (Sarcoma 180; 7.0 mg/kg i.p., QD × 5, day 10): Tumor not detectable

CC(C)COC(=O)Nc1cc(CO)cc(Nc2c3ccccc3nc3ccccc23)c1 [compound 3, i-butyl N-[3-(acridin-9-yl)amino-5-hydroxymethyl]phenylcarbamate]
IC50 (HL-60 cells): 18 nM
IC50 (833K tumor cells): 21 nM

CNC(=O)c1cccc2c(Nc3cc(N)cc(CO)c3)c3cccc(C)c3nc12 [compound 4, 3-(5-methyl-4-methylamino-carbonylacridin-9-yl)amino-5-hydroxymethylaniline]
IC50 (HL-60 cells): 144 nM
IC50 (833K tumor cells): 244 nM

CCOC(=O)Nc1cc(CO)cc(Nc2c3cccc(C)c3nc3c(C(=O)NC)cccc23)c1 [compound 5, ethyl N-[3-(4-methylaminocarbonyl-5-methylacridin-9-yl)amino-5-hydroxymethyl]phenylcarbamate]
IC50 (HL-60 cells): 83 nM
IC50 (833K tumor cells): 34 nM

COc1cc(NS(C)(=O)=O)ccc1Nc1c2ccccc2nc2ccccc12 [m-AMSA, 4'-(9-acridinylamino)methanesulfon-m-anisidine]
dose excreted as the glutathione conjugate in the bile [1]: More than 50%
major biliary metabolites [5]: the major biliary metabolites of this agent were the 5'- and 6'-glutathione (GSH) conjugates, with no C9-GSH conjugate being found
half-life in the presence of fresh mouse blood [6]: ca. 30 min
